Assay results: BindingDB's records for doi:10.1016/j.bmcl.2004.06.041 (Abbott Laboratories, 2004)

Molecular target: Vascular endothelial growth factor receptor 2 (Homo sapiens, UniProt P35968)
Experiment: Homogeneous Time-resolved Fluorescence (HTRF) Assay
Details: pH 7.4; 22 °C
Excerpt: The assay was using baculovirus-expressed recombinant protein kinase and biotinylated poly-Glu-Ala-Tyr substrate.

Sequence of Vascular endothelial growth factor receptor 2 (P35968 whole entry): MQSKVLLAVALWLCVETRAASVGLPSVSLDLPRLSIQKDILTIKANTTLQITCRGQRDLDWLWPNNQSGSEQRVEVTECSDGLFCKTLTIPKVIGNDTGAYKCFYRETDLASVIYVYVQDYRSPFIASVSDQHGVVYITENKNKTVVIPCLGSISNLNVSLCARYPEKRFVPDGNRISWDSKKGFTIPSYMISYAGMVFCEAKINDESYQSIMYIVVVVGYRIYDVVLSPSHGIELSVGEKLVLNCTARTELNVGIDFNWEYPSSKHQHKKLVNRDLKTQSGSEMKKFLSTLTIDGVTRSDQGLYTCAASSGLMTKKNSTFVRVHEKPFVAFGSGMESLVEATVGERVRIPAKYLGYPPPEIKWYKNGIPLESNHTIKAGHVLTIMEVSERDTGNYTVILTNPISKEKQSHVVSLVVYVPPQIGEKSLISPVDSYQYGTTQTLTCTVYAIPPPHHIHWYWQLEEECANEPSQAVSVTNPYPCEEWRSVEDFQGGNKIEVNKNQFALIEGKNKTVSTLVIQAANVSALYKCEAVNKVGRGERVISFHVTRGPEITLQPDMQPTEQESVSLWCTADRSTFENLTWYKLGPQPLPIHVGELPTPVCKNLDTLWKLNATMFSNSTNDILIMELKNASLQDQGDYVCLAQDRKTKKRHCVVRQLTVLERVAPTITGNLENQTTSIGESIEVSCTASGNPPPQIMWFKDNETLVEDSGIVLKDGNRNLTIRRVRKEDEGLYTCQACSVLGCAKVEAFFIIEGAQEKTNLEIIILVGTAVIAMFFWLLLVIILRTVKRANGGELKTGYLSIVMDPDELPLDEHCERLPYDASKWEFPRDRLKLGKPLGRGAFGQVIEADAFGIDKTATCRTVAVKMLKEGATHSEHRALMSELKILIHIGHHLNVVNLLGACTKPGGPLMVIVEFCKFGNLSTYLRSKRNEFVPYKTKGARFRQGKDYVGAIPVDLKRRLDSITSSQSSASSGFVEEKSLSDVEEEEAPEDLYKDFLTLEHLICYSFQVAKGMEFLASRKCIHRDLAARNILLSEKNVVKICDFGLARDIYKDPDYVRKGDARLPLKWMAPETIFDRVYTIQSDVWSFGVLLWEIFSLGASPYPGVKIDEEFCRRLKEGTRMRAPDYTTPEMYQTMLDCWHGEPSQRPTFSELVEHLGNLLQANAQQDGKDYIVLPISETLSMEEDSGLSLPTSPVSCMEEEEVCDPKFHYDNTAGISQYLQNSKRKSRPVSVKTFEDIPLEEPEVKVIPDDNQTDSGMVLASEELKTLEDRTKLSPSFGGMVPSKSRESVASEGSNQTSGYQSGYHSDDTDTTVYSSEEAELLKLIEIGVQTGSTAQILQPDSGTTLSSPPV

IC50 | Structure (SMILES)
> 50000 nM | COc1cc(-c2nn(C3CCC(N4CCN(C)CC4)CC3)c3ncnc(N)c23)ccc1NC(=O)c1ccccc1 [N-(4-{(S)-4-Amino-1-[4-(4-methyl-piperazin-1-yl)-cyclohexyl]-1H-pyrazolo[3,4-d]pyrimidin-3-yl}-2-methoxy-phenyl)-benzamide]
263 nM | COc1cc(-c2nn(C3CCC(N4CCN(C)CC4)CC3)c3ncnc(N)c23)ccc1NC(=O)Nc1ccccc1 [1-(4-{(S)-4-Amino-1-[4-(4-methyl-piperazin-1-yl)-cyclohexyl]-1H-pyrazolo[3,4-d]pyrimidin-3-yl}-2-methoxy-phenyl)-3-phenyl-urea]
